Data: patent US20240100013A1, “SOTAGLIFLOZIN FOR IMPROVING LEFT ATRIAL FUNCTION” (CHARITÉ-UNIVERSITÄTSMEDIZIN BERLIN, priority 2021, published 2024)

Legend:
LA cardiomyocytes = assay: Spontaneous SR Ca2+ release events (SCaEs) of isolated LA cardiomyocytes; format: cell-based, rat; details: baseline conditions; antioxidative treatment; both HFpEF groups
Source text: Cardiomyocyte isolation. LA and LV cardiomyocytes were isolated using enzymatic digestion as previously described in detail. See Bode D, Guthof T, Pieske B M, Heinzel F R, Hohendanner F: “Isolation of Atrial Cardiomyocytes from a Rat Model of Metabolic Syndrome-related Heart Failure with Preserved Ejection Fraction,” J Vis Exp 2018(137).
Solutions and chemicals. Chemicals were obtained from Sigma-Aldrich (St. Louis, MO, USA) unless noted otherwise. The dual SGLT1/2 inhibitor sotagliflozin was provided by Lexicon Pharmaceuticals (The Woodlands, TX, USA). Fluorescent dyes Fura-2 AM, Rhod-2 AM, MitoTracker red, MitoTracker green, TMRE and H2-DCF were obtained from Thermo Fisher Scientific (Waltham, MA, USA). Tyrode solution contained (in mM): 130 NaCL, 4 KCl, 2 CaCl, 1 MgCl2, 10 Glucose, 10 HEPES; pH adjusted to 7.4 with NaOH. LA cardiomyocytes were plated on laminin-coated glass coverslips. 20 mM caffeine was added to Tyrode solution to induce sarcoplasmic reticulum (SR) Ca^2+ release and obtain a measure of SR Ca^2+ content. […]
Ca^2+ measurements and sarcomere shortening. Radiometric Ca^2+ measurements (excitation: 340 nm and 385 nm, emission: 510±10 nm; [Ca^2+] expressed as the ratio R=F340/F380) were performed either with a CytoCypher MultiCell System (CytoCypher BV, Netherlands; FIGS. 1C-F, 2D-G, 4A-F) or an Axiovert 200 microscope (Zeiss, Oberkochen, Germany) fluorescence imaging assembly (FIGS. 2A-C, 2H-J, 3A-E, 6E-I). […] Experiments were conducted at 37° C. and CaT were recorded at steady state (following electric stimulation).
CaT and sarcomere shortening of LA and LV cardiomyocytes were recorded for 10 s at 3 Hz stimulation. See FIGS. 2D-G, 4A-F. Electric stimulation was turned off and spontaneous SR Ca^2+ release events (See Voigt N, Heijman J, Wang Q, Chiang D Y, Li N, Karck M, Wehrens X H T, Nattel S, Dobrev D: “Cellular and molecular mechanisms of atrial arrhythmogenesis in patients with paroxysmal atrial fibrillation,” Circulation 2014, 129(2):145-156) (SCaEs) immediately recorded for a duration of 10 s (FIG. 1C-F). […]

[1] = tested on: high-fat diet/streptozotocin-induced diabetic rats; details: via improved mitochondrial function; cited from earlier work

| Compound | occurrence of SCaEs (LA cardiomyocytes) | diabetes related atrial fibrillation [1] |
| --- | --- | --- |
| CC(=O)N[C@@H](CS)C(=O)O [acetylcysteine] | decreased |  |
| OC[C@H]1O[C@@H](c2ccc(Cl)c(Cc3ccc(O[C@H]4CCOC4)cc3)c2)[C@H](O)[C@@H](O)[C@@H]1O [empagliflozin] |  | mitigate |
